Molecular target: T1, sproBACE1 (soluble form of human BACE1) (Homo sapiens, UniProt P56817)
T1 construct: sBACE1, corresponding to amino acids 1-454; made in house; host or cells: Sf9 insect cells (baculovirus), secreted into the medium
Assay: Peptide Hydrolysis Assay (HTRF, EuK-biotin labeled APPsw substrate)
Format: biochemical
Conditions: 7 nM sproBACE1, 25 nM EuK-biotin APPsw substrate, pH 5.0, 3 hr at 30° C.
Source text: A predicted soluble form of human BACE1 (sBACE1, corresponding to amino acids 1-454) was generated from the full length BACE1 cDNA (full length human BACE1 cDNA in pcDNA4/mycHisA construct; University of Toronto) by PCR using the advantage-GC cDNA PCR kit (Clontech, Palo Alto, Calif.). A HindIII/PmeI fragment from pcDNA4-sBACE1myc/His was blunt ended using Klenow and subcloned into the StuI site of pFASTBACI(A) (Invitrogen). A sBACE1mycHis recombinant bacmid was generated by transposition in DH10Bac cells(GIBCO/BRL). Subsequently, the sBACE1 mycHis bacmid construct was transfected into sf9 cells using CellFectin (Invitrogen, San Diego, Calif.) in order to generate recombinant baculovirus. […]
Proteins, were eluted from the Q-sepharose column with Buffer B (20 mM HEPES, pH 8.0, 500 mM NaCl). […] Peak protein fractions as determined by the Bradford Assay (Biorad, CA) were concentrated using a Centricon 30 concentrator (Millipore). sBACE1 purity was estimated to be ˜90% as assessed by SDS-PAGE and Commassie Blue staining. […]
IC50 determinations for inhibitors, (I), were determined by measuring the percent change of the relative fluorescence at 665 nm divided by the relative fluorescence at 620 nm, (665/620 ratio), in the presence of varying concentrations of I and a fixed concentration of enzyme and substrate. […]

T1 sequence (P56817 22-454): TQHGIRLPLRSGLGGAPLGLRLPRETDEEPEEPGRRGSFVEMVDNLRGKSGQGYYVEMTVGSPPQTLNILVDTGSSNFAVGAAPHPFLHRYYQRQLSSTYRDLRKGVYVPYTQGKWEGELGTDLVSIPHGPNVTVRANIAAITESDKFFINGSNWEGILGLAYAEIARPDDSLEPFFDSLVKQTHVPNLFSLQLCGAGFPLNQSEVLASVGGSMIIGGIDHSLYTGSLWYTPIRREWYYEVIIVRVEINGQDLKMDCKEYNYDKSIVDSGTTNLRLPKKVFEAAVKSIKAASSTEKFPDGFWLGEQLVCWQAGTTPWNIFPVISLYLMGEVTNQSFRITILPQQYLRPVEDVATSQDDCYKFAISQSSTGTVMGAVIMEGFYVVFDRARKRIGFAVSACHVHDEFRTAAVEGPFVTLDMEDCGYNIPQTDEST

IC50: 186 nM
SMILES: CC(=O)N[C@@H](Cc1cc(F)cc(OCc2ccncc2)c1)[C@H](O)[C@@H]1NCCN(Cc2ccccc2)C1=O
